Measurements from PubChem BioAssay AID2060907 (Molecular Pharmacology Branch, DTP, NCI, 2025).
Several values for one entry are separate records, joined by “and”; a condition that tells them apart may be missing. Equal entries are not always repeated.

Test system: 388556-164-R-J1-PDC complex spheroid viability
Experiment: Anticancer human tumor 388556-164-R-J1-PDC patient-derived colon adenocarcinoma cell line growth inhibition [RAS]
Settings: for viability, T/C: stronger effect = lower value
Method in brief: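 Tumour cells grown as complex spheroids with HUVEC endothelial cells and mesenchymal stem cells, treated with RAS pathway inhibitor combinations. Each agent spans half-log steps from near clinical Cmax, or 10 microM where Cmax is unknown.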
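Also: spheroids exposed to compound for 7 days before readout.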
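For viability, T/C in this document: 100% = DMSO vehicle control luminescence.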

## CC1(O)CCCC1n1c(=O)c(C(F)F)cc2cnc(NC3CCN(S(C)(=O)=O)CC3)nc21 (stereo not given) + C#Cc1c(F)ccc2cc(O)cc(-c3ncc4c(N5CC6CCC(C5)N6)nc(OCC56CCCN5CC(F)C6)nc4c3F)c12
Curve of first compound, second compound 0.0316 µM
  IC50: > 10 µM
Curve of first compound, second compound 0.1 µM
  IC50: > 10 µM
Curve of first compound, second compound 0.316 µM
  IC50: > 10 µM
Curve of first compound, second compound 1 µM
  IC50: 9.42 µM
Curve of first compound, second compound 3.16 µM
  IC50: 8.92 µM
Curve of first compound, second compound 10 µM
  IC50: 5.28 µM
Second compound 0.0316 µM, first compound 0.0316 µM
  viability, T/C: 99.9%
Second compound 0.0316 µM, first compound 0.1 µM
  viability, T/C: 101%
Second compound 0.0316 µM, first compound 0.316 µM
  viability, T/C: 97.3%
Second compound 0.0316 µM, first compound 1 µM
  viability, T/C: 108%
Second compound 0.0316 µM, first compound 3.16 µM
  viability, T/C: 111%
Second compound 0.0316 µM, first compound 10 µM
  viability, T/C: 76.7%
Second compound 0.1 µM, first compound 0.0316 µM
  viability, T/C: 108%
Second compound 0.1 µM, first compound 0.1 µM
  viability, T/C: 103%
Second compound 0.1 µM, first compound 0.316 µM
  viability, T/C: 99.4%
Second compound 0.1 µM, first compound 1 µM
  viability, T/C: 97.3%
Second compound 0.1 µM, first compound 3.16 µM
  viability, T/C: 104%
Second compound 0.1 µM, first compound 10 µM
  viability, T/C: 77.2%
Second compound 0.316 µM, first compound 0.0316 µM
  viability, T/C: 98.5%
Second compound 0.316 µM, first compound 0.1 µM
  viability, T/C: 108%
Second compound 0.316 µM, first compound 0.316 µM
  viability, T/C: 89.4%
Second compound 0.316 µM, first compound 1 µM
  viability, T/C: 107%
Second compound 0.316 µM, first compound 3.16 µM
  viability, T/C: 112%
Second compound 0.316 µM, first compound 10 µM
  viability, T/C: 62.4%
Second compound 1 µM, first compound 0.0316 µM
  viability, T/C: 92.5%
Second compound 1 µM, first compound 0.1 µM
  viability, T/C: 99.1%
Second compound 1 µM, first compound 0.316 µM
  viability, T/C: 77.4%
Second compound 1 µM, first compound 1 µM
  viability, T/C: 94.8%
Second compound 1 µM, first compound 3.16 µM
  viability, T/C: 97.4%
Second compound 1 µM, first compound 10 µM
  viability, T/C: 47.6%
Second compound 3.16 µM, first compound 0.0316 µM
  viability, T/C: 86.2%
Second compound 3.16 µM, first compound 0.1 µM
  viability, T/C: 78.6%
Second compound 3.16 µM, first compound 0.316 µM
  viability, T/C: 78.9%
Second compound 3.16 µM, first compound 1 µM
  viability, T/C: 82.1%
Second compound 3.16 µM, first compound 3.16 µM
  viability, T/C: 87.9%
Second compound 3.16 µM, first compound 10 µM
  viability, T/C: 46.6%
Second compound 10 µM, first compound 0.0316 µM
  viability, T/C: 69.8%
Second compound 10 µM, first compound 0.1 µM
  viability, T/C: 72.6%
Second compound 10 µM, first compound 0.316 µM
  viability, T/C: 74.8%
Second compound 10 µM, first compound 1 µM
  viability, T/C: 76.2%
Second compound 10 µM, first compound 3.16 µM
  viability, T/C: 56.3%
Second compound 10 µM, first compound 10 µM
  viability, T/C: 42.1%

## CC(C)NCC(C(=O)N1CCN(c2ncnc3c2C(C)CC3O)CC1)c1ccc(Cl)cc1 (stereo not given)
Compound 0.1 µM
  viability, T/C: 108% [middle of 4 runs]
Compound 0.316 µM
  viability, T/C: 119% and 102% (3×)
Compound 1 µM
  viability, T/C: 100% [middle of 4 runs]
Compound 3.16 µM
  viability, T/C: 100% [middle of 4 runs]
Compound 10 µM
  viability, T/C: 103% [middle of 4 runs]
Curve of compound
  IC50: > 10 µM

## C=CC(=O)Nc1cc(Nc2nccc(-c3cn(C)c4ccccc34)n2)c(OC)cc1N(C)CCN(C)C + CCn1c(-c2cccnc2C(C)OC)c2c3cc(ccc31)N1CCOC(CC(NC(=O)C(C(C)C)N(C)C(=O)C3(F)CCN(C(=O)C#CC(C)(C)N(C)C)CC3)C(=O)N3CCCC(N3)C(=O)OCC(C)(C)C2)C1
Curve of first compound, second compound 0.000949 µM
  IC50: > 1 µM
Curve of first compound, second compound 0.003 µM
  IC50: > 1 µM
Curve of first compound, second compound 0.00949 µM
  IC50: > 1 µM
Curve of first compound, second compound 0.03 µM
  IC50: 0.974 µM
Curve of first compound, second compound 0.0949 µM
  IC50: 0.864 µM
Curve of first compound, second compound 0.3 µM
  IC50: 0.849 µM
Second compound 0.000949 µM, first compound 0.00316 µM
  viability, T/C: 98.7%
Second compound 0.000949 µM, first compound 0.01 µM
  viability, T/C: 93.3%
Second compound 0.000949 µM, first compound 0.0316 µM
  viability, T/C: 91.5%
Second compound 0.000949 µM, first compound 0.1 µM
  viability, T/C: 88.5%
Second compound 0.000949 µM, first compound 0.316 µM
  viability, T/C: 75.2%
Second compound 0.000949 µM, first compound 1 µM
  viability, T/C: 53.4%
Second compound 0.003 µM, first compound 0.00316 µM
  viability, T/C: 108%
Second compound 0.003 µM, first compound 0.01 µM
  viability, T/C: 108%
Second compound 0.003 µM, first compound 0.0316 µM
  viability, T/C: 101%
Second compound 0.003 µM, first compound 0.1 µM
  viability, T/C: 83.6%
Second compound 0.003 µM, first compound 0.316 µM
  viability, T/C: 73.8%
Second compound 0.003 µM, first compound 1 µM
  viability, T/C: 53.4%
Second compound 0.00949 µM, first compound 0.00316 µM
  viability, T/C: 105%
Second compound 0.00949 µM, first compound 0.01 µM
  viability, T/C: 107%
Second compound 0.00949 µM, first compound 0.0316 µM
  viability, T/C: 90.9%
Second compound 0.00949 µM, first compound 0.1 µM
  viability, T/C: 80.2%
Second compound 0.00949 µM, first compound 0.316 µM
  viability, T/C: 82.3%
Second compound 0.00949 µM, first compound 1 µM
  viability, T/C: 54.1%
Second compound 0.03 µM, first compound 0.00316 µM
  viability, T/C: 107%
Second compound 0.03 µM, first compound 0.01 µM
  viability, T/C: 96.2%
Second compound 0.03 µM, first compound 0.0316 µM
  viability, T/C: 101%
Second compound 0.03 µM, first compound 0.1 µM
  viability, T/C: 88.1%
Second compound 0.03 µM, first compound 0.316 µM
  viability, T/C: 70.6%
Second compound 0.03 µM, first compound 1 µM
  viability, T/C: 49.5%
Second compound 0.0949 µM, first compound 0.00316 µM
  viability, T/C: 105%
Second compound 0.0949 µM, first compound 0.01 µM
  viability, T/C: 108%
Second compound 0.0949 µM, first compound 0.0316 µM
  viability, T/C: 95.9%
Second compound 0.0949 µM, first compound 0.1 µM
  viability, T/C: 93.9%
Second compound 0.0949 µM, first compound 0.316 µM
  viability, T/C: 75%
Second compound 0.0949 µM, first compound 1 µM
  viability, T/C: 46%
Second compound 0.3 µM, first compound 0.00316 µM
  viability, T/C: 98.5%
Second compound 0.3 µM, first compound 0.01 µM
  viability, T/C: 89.3%
Second compound 0.3 µM, first compound 0.0316 µM
  viability, T/C: 89.5%
Second compound 0.3 µM, first compound 0.1 µM
  viability, T/C: 81.5%
Second compound 0.3 µM, first compound 0.316 µM
  viability, T/C: 69.4%
Second compound 0.3 µM, first compound 1 µM
  viability, T/C: 46.3%
